Source: article PMC6556873, “Rapid Covalent-Probe Discovery by Electrophile-Fragment Screening” (Journal of the American Chemical Society, 2019)
Like-named read-outs stand apart in the source and are kept apart here.

What was measured:
in vitro [1] = assay: in vitro; parameters: species or system HB2, HEK293; details: human, ccd841 cells
NUDT7 = biological target: T1, NUDT7 (Homo sapiens, UniProt P0C024); parameters: Intact protein LC/MS covalent labelling, fragments in pools of five, 200 uM each, 4 °C; details: 24 h, 4 °C, pool of five; 200 µM; covalent
T1 construct: residues 14-235, E. coli, pNIC28-Bsa4, N-terminal His6 tag removed by TEV, construct 26672 Da
T1 sequence (P0C024 14-235): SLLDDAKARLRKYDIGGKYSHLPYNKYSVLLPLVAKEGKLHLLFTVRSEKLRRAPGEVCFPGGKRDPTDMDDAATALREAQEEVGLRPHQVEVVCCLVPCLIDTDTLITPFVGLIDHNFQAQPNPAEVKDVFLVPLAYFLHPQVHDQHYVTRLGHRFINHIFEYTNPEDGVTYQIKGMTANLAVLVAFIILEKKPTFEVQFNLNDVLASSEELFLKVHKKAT

BSA = biological target: T2, BSA (Bos taurus, UniProt P02769); parameters: Intact protein LC/MS covalent labelling, fragments in pools of five, 200 uM each, 4 °C; details: 24 h, 4 °C, pool of five; 200 µM; covalent
T2 construct: gene ALB
T2 sequence (P02769 whole entry, the tested form may be a part): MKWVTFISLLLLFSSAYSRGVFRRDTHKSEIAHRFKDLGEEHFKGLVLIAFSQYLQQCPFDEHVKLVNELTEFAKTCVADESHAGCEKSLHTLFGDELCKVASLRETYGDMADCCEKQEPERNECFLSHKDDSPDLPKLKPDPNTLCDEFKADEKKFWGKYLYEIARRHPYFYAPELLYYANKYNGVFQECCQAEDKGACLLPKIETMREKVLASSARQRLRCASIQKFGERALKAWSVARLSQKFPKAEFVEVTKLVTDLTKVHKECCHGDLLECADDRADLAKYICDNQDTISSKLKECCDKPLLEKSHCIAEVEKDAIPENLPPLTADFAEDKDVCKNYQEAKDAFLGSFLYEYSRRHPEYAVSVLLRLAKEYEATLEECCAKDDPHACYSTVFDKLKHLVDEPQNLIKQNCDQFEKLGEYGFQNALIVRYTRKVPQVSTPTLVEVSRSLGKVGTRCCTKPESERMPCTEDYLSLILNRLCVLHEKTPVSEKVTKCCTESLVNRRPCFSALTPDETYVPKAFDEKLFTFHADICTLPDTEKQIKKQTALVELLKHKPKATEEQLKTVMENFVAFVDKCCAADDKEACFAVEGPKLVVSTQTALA

PCAF = biological target: T3, PCAF (Homo sapiens, UniProt Q92831); parameters: Intact protein LC/MS covalent labelling, fragments in pools of five, 200 uM each, 4 °C; details: 24 h, 4 °C, pool of five; 200 µM; covalent
T3 construct: gene KAT2B
T3 sequence (Q92831 whole entry, the tested form may be a part): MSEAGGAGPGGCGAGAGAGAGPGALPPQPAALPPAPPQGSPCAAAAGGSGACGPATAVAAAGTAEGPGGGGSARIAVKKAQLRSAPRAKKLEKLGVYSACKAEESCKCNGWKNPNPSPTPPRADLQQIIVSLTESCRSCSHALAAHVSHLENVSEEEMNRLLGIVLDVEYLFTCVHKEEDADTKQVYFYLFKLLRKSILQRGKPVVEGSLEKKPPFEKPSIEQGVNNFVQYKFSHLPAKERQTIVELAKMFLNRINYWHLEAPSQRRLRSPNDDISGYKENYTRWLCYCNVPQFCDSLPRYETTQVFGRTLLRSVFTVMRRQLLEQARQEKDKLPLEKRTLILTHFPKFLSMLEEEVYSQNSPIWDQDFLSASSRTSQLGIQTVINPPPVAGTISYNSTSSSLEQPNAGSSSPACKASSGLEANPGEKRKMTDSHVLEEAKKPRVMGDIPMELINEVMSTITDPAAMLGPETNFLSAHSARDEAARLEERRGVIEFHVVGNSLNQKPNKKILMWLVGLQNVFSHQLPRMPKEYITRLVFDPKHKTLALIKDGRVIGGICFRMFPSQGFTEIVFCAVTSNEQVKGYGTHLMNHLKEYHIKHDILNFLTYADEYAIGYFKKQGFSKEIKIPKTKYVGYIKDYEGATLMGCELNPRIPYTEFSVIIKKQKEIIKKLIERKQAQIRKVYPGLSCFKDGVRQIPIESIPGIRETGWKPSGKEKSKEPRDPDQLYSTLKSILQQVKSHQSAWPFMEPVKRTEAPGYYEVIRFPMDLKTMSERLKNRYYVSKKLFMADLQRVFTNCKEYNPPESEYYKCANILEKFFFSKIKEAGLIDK

OTUB2 (OTUB2A) = biological target: T4, OTUB2 (OTUB2A) (Homo sapiens, UniProt Q96DC9); parameters: Intact protein LC/MS covalent labelling, fragments in pools of five, 200 uM each, 4 °C; details: 24 h, 4 °C, pool of five; 200 µM; covalent
T4 construct: full length residues 1-234, E. coli BL21(DE3)-R3, His tag removed by TEV, construct 27312 Da
T4 sequence (Q96DC9 1-234): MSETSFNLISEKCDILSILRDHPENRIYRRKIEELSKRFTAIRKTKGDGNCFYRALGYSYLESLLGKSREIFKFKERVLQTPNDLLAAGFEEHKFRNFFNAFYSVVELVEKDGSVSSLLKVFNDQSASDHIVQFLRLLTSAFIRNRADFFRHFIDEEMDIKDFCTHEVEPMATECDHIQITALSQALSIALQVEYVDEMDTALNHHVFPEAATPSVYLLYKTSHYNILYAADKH

in vitro [2] = assay: in vitro; parameters: species or system CCD841, HEK293; details: human, hb2 cells, read-out: HB-2 Cells Viability (%)
in vitro [3] = assay: in vitro; parameters: species or system HB2, CCD841; details: human, hek293 cells

Compound: O=C(CCl)Nc1ccc2c(c1)OCCCO2 [PCM-0102409]
- viability at 48 h, 10 µM (in vitro [1]): 51.7%
- NUDT7 (NUDT7): 0.1
- BSA (BSA): 0
- PCAF (PCAF): 0
- OTUB2 (OTUB2 (OTUB2A)): 0.23
- viability at 48 h, 10 µM (in vitro [2]): 29.6%
- viability at 48 h, 10 µM (in vitro [3]): 6.9%

Compound: COc1cccc(NC(=O)CCl)c1 [PCM-0102410]
- viability at 48 h, 10 µM (in vitro [1]): 63.5%
- NUDT7 (NUDT7): 0
- BSA (BSA): 0.21
- PCAF (PCAF): 0
- OTUB2 (OTUB2 (OTUB2A)): 0
- viability at 48 h, 10 µM (in vitro [2]): 34.1%
- viability at 48 h, 10 µM (in vitro [3]): 7.5%

Compound: O=C(CCl)NC(=O)NC1CC1 [PCM-0102411]
- viability at 48 h, 10 µM (in vitro [1]): 84.9%
- NUDT7 (NUDT7): 0
- BSA (BSA): 0
- PCAF (PCAF): 0
- OTUB2 (OTUB2 (OTUB2A)): 0
- viability at 48 h, 10 µM (in vitro [2]): 96.7%
- viability at 48 h, 10 µM (in vitro [3]): 109%

Compound: O=C(CCl)Nc1cc(Cl)ccc1C(=O)O [PCM-0102412]
- viability at 48 h, 10 µM (in vitro [1]): 100%
- NUDT7 (NUDT7): 0.16
- BSA (BSA): 0
- PCAF (PCAF): 0
- OTUB2 (OTUB2 (OTUB2A)): 0.07
- viability at 48 h, 10 µM (in vitro [2]): 99.3%
- viability at 48 h, 10 µM (in vitro [3]): 89.4%

Compound: C=CC(=O)Nc1cccc(F)c1C [PCM-0102413]
- viability at 48 h, 10 µM (in vitro [1]): 86%
- NUDT7 (NUDT7): 0
- BSA (BSA): 0
- PCAF (PCAF): 0
- OTUB2 (OTUB2 (OTUB2A)): 0
- viability at 48 h, 10 µM (in vitro [2]): 100%
- viability at 48 h, 10 µM (in vitro [3]): 86.8%

Compound: O=C(CCl)N1CCSc2ccccc21 [PCM-0102415]
- viability at 48 h, 10 µM (in vitro [1]): 60.6%
- NUDT7 (NUDT7): 0.1
- BSA (BSA): 0
- PCAF (PCAF): 0
- OTUB2 (OTUB2 (OTUB2A)): 0.16
- viability at 48 h, 10 µM (in vitro [2]): 30.2%
- viability at 48 h, 10 µM (in vitro [3]): 22.4%

Compound: CS(=O)(=O)N1CCN(C(=O)CCl)CC1 [PCM-0102417]
- viability at 48 h, 10 µM (in vitro [1]): 78.8%
- NUDT7 (NUDT7): 0
- BSA (BSA): 0
- PCAF (PCAF): 0
- OTUB2 (OTUB2 (OTUB2A)): 0
- viability at 48 h, 10 µM (in vitro [2]): 89.4%
- viability at 48 h, 10 µM (in vitro [3]): 70.1%

Compound: C=CC(=O)N1CCN(C(=O)OC(C)(C)C)CC1 [PCM-0102419]
- viability at 48 h, 10 µM (in vitro [1]): 104%
- NUDT7 (NUDT7): 0.16
- BSA (BSA): 0
- PCAF (PCAF): 0
- OTUB2 (OTUB2 (OTUB2A)): 0
- viability at 48 h, 10 µM (in vitro [2]): 100%
- viability at 48 h, 10 µM (in vitro [3]): 90.3%

Compound: CC1CCc2c(sc(NC(=O)CCl)c2C#N)C1 (stereo not drawn) [PCM-0102420]
- viability at 48 h, 10 µM (in vitro [1]): 81.6%
- NUDT7 (NUDT7): 0.47
- BSA (BSA): 0
- PCAF (PCAF): 0
- OTUB2 (OTUB2 (OTUB2A)): 0
- viability at 48 h, 10 µM (in vitro [2]): 50.9%
- viability at 48 h, 10 µM (in vitro [3]): 43.4%

Compound: O=C(CCl)NC(=O)c1ccccc1Cl [PCM-0102422]
- viability at 48 h, 10 µM (in vitro [1]): 110%
- NUDT7 (NUDT7): 0
- BSA (BSA): 0
- PCAF (PCAF): 0
- OTUB2 (OTUB2 (OTUB2A)): 0
- viability at 48 h, 10 µM (in vitro [2]): 99.7%
- viability at 48 h, 10 µM (in vitro [3]): 93%

Compound: C=CC(=O)N1CCC(n2cc(C)cn2)CC1 [PCM-0102423]
- viability at 48 h, 10 µM (in vitro [1]): 108%
- NUDT7 (NUDT7): 0
- BSA (BSA): 0
- PCAF (PCAF): 0
- OTUB2 (OTUB2 (OTUB2A)): 0.09
- viability at 48 h, 10 µM (in vitro [2]): 104%
- viability at 48 h, 10 µM (in vitro [3]): 92.5%

Compound: O=C(CCl)N1CCCC(c2nc3ccccc3s2)C1 (stereo not drawn) [PCM-0102425]
- viability at 48 h, 10 µM (in vitro [1]): 3.5%
- NUDT7 (NUDT7): 0.28
- BSA (BSA): 0
- PCAF (PCAF): 0
- OTUB2 (OTUB2 (OTUB2A)): 0
- viability at 48 h, 10 µM (in vitro [2]): 4.1%
- viability at 48 h, 10 µM (in vitro [3]): 9.4%

Compound: O=C(CCl)NNC(=O)c1cccs1 [PCM-0102426]
- viability at 48 h, 10 µM (in vitro [1]): 88.7%
- NUDT7 (NUDT7): 0
- BSA (BSA): 0
- PCAF (PCAF): 0
- OTUB2 (OTUB2 (OTUB2A)): 0.6
- viability at 48 h, 10 µM (in vitro [2]): 86%
- viability at 48 h, 10 µM (in vitro [3]): 82.8%

Compound: CC1(c2ccccc2)NC(=O)N(NC(=O)CCl)C1=O (stereo not drawn) [PCM-0102428]
- viability at 48 h, 10 µM (in vitro [1]): 81.4%
- NUDT7 (NUDT7): 0
- BSA (BSA): 0
- PCAF (PCAF): 0
- OTUB2 (OTUB2 (OTUB2A)): 0
- viability at 48 h, 10 µM (in vitro [2]): 91.2%
- viability at 48 h, 10 µM (in vitro [3]): 103%

Compound: O=C(CCl)NNC(=O)c1ccc(F)cc1 [PCM-0102430]
- viability at 48 h, 10 µM (in vitro [1]): 93.2%
- NUDT7 (NUDT7): 0
- BSA (BSA): 0
- PCAF (PCAF): 0
- OTUB2 (OTUB2 (OTUB2A)): 0.31
- viability at 48 h, 10 µM (in vitro [2]): 94.9%
- viability at 48 h, 10 µM (in vitro [3]): 93.4%

Compound: C=CC(=O)N1CCCC(Cc2nccn2C)C1 (stereo not drawn) [PCM-0102433]
- viability at 48 h, 10 µM (in vitro [1]): 97.8%
- NUDT7 (NUDT7): 0.2
- BSA (BSA): 0
- PCAF (PCAF): 0.44
- OTUB2 (OTUB2 (OTUB2A)): 0.26
- viability at 48 h, 10 µM (in vitro [2]): 94.7%
- viability at 48 h, 10 µM (in vitro [3]): 92.9%

Compound: CCC1CN(C(=O)CCl)CCO1 (stereo not drawn) [PCM-0102436]
- viability at 48 h, 10 µM (in vitro [1]): 79.3%
- NUDT7 (NUDT7): 0
- BSA (BSA): 0
- PCAF (PCAF): 0
- OTUB2 (OTUB2 (OTUB2A)): 0
- viability at 48 h, 10 µM (in vitro [2]): 85.5%
- viability at 48 h, 10 µM (in vitro [3]): 71.4%

Compound: C=CC(=O)N1CCC(n2nnc3c2CCCC3)CC1 [PCM-0102437]
- viability at 48 h, 10 µM (in vitro [1]): 92.9%
- NUDT7 (NUDT7): 0
- BSA (BSA): 0
- PCAF (PCAF): 0
- OTUB2 (OTUB2 (OTUB2A)): 0
- viability at 48 h, 10 µM (in vitro [2]): 106%
- viability at 48 h, 10 µM (in vitro [3]): 91.5%

Compound: CC(c1ccc(F)c(F)c1)N(C)C(=O)CCl (stereo not drawn) [PCM-0102438]
- viability at 48 h, 10 µM (in vitro [1]): 39.3%
- NUDT7 (NUDT7): 0.14
- BSA (BSA): 0
- PCAF (PCAF): 0
- OTUB2 (OTUB2 (OTUB2A)): 0.08
- viability at 48 h, 10 µM (in vitro [2]): 23.2%
- viability at 48 h, 10 µM (in vitro [3]): 16.4%

Compound: C=CC(=O)N1CCOC2(CCc3ccccc32)C1 (stereo not drawn) [PCM-0102439]
- viability at 48 h, 10 µM (in vitro [1]): 105%
- NUDT7 (NUDT7): 0
- BSA (BSA): 0
- PCAF (PCAF): 0
- OTUB2 (OTUB2 (OTUB2A)): 0
- viability at 48 h, 10 µM (in vitro [2]): 99.3%
- viability at 48 h, 10 µM (in vitro [3]): 92.3%

Compound: C=CC(=O)NC1CCCCC1n1cccn1 (stereo not drawn) [PCM-0102440]
- viability at 48 h, 10 µM (in vitro [1]): 100%
- NUDT7 (NUDT7): 0.08
- BSA (BSA): 0
- PCAF (PCAF): 0
- OTUB2 (OTUB2 (OTUB2A)): 0
- viability at 48 h, 10 µM (in vitro [2]): 91.4%
- viability at 48 h, 10 µM (in vitro [3]): 98.5%

Compound: C=CC(=O)N1CCN(c2nc3ccccc3o2)C(C)C1 (stereo not drawn) [PCM-0102441]
- viability at 48 h, 10 µM (in vitro [1]): 99.4%
- NUDT7 (NUDT7): 0
- BSA (BSA): 0
- PCAF (PCAF): 0
- OTUB2 (OTUB2 (OTUB2A)): 0
- viability at 48 h, 10 µM (in vitro [2]): 96.7%
- viability at 48 h, 10 µM (in vitro [3]): 88.3%

Compound: C=CC(=O)N1CC2CC3CC(C2)CC1C3 [PCM-0102443]
- viability at 48 h, 10 µM (in vitro [1]): 115%
- NUDT7 (NUDT7): 0
- BSA (BSA): 0
- PCAF (PCAF): 0
- OTUB2 (OTUB2 (OTUB2A)): 0.24
- viability at 48 h, 10 µM (in vitro [2]): 99.9%
- viability at 48 h, 10 µM (in vitro [3]): 97.7%

Compound: C=CC(=O)N1CCC(N2CCS(=O)(=O)CC2)CC1 [PCM-0102444]
- viability at 48 h, 10 µM (in vitro [1]): 109%
- NUDT7 (NUDT7): 0
- BSA (BSA): 0
- PCAF (PCAF): 0
- OTUB2 (OTUB2 (OTUB2A)): 0
- viability at 48 h, 10 µM (in vitro [2]): 102%
- viability at 48 h, 10 µM (in vitro [3]): 93.6%
